In patent US12121521B2, “Uses of salt-inducible kinase (SIK) inhibitors for treating osteoporosis” (The General Hospital Corporation, priority 2016, dated 2024):
pKd: −log10 of the molar value. Entries after “also recorded” stand apart in the source; their conditions may differ.

How the values were obtained:
[1] = target: T1, SIK2 (Homo sapiens, UniProt Q9H0K1); test: Kd determination for SIK2 (bound kinase measured by qPCR); assay type: binding
T1 construct: T7 phage fusion (most kinases) or DNA tag after HEK-293 expression; purchased DiscoverX (Fremont, CA), ScanEDGE; host or cells: T7 phage in E. coli BL21-derived host, or HEK-293
Experimental: FIGS. 5A to 5J: Small molecule SIK inhibitors regulate SOST and RANKL expression by osteocytes. (FIG. 5A) Structure of YKL-04-114 (top panel, left), YKL-05-093 (top panel, right), and YKL-05-093 Kd determination curves for SIK2 (bottom panels). For the Kd determination curves, the y-axis represents the amount of bound kinase measured by qPCR (see methods), and the x-axis represents the corresponding compound concentration in nM. (FIG. 5B) Ocy454 cells were treated with YKL-04-114 (10 μM) for the indicated times, followed by immunoblotting of whole cell lysates as indicated. (FIG. 5C) Ocy454 cells were treated with the indicated concentrations of YKL-04-114 for 60 minutes, followed by immunoblotting of whole cell lysates as indicated. […] Right: quantification of nuclear fraction (defined as nuclear/total) of HDAC4 or CRTC2. * indicates p<0.01 comparing treatment vs vehicle. […] Quantification of HDAC4 S246 phosphorylation, as assessed by densitometric analysis of immunoblots, is shown. * indicates p<0.01 comparing treatment vs vehicle. # indicates p<0.05 for the same comparison. […] (FIG. 5G) Control and SIK2/3 deficient cells were treated with YKL-05-093 (0.5 μM) for 4 hours and SOST transcript abundance was measured by RT-qPCR. (FIG. 5H) Control and CRTC2 shRNA cells were treated with PTH (1 nM) or YKL-05-093 (0.5 μM) for 4 hours and RANKL transcript abundance was measured by RT-qPCR. […]

[2] = Half-life in murine hepatic microsomes; assay type: in vitro ADME; settings: compared to YKL-04-114 and HG-9-91-01; FIG. 16
Experimental: FIG. 16: The half-life (in minute) of the indicated compound was measured in murine hepatic microsomes.

[3] = target: T2, ADCK3 (Homo sapiens, UniProt Q8NI60); test: ScanEDGE kinase panel (DiscoverX); assay type: binding; settings: read-out: % of control activity at 71 nM
T2 construct: T7 phage fusion (most kinases) or DNA tag for qPCR (HEK-293-made kinases); purchased DiscoverX (Fremont, CA); host or cells: E. coli BL21-derived host (T7 phage) or HEK-293
Experimental: (§1) ScanEDGE kinase assays paneling specificity across a panel of 96 representative kinases were performed by DiscoverX (Fremont, CA). For most assays, kinase-tagged T7 phage strains were grown in parallel in 24-well blocks in an E. coli host derived from the BL21 strain. Bacteria were grown to log phase and infected with T7 phage from frozen stock (MOI=0.4) and incubated with shaking at 32° C. until lysis (90-150 minutes). The lysates were centrifuged (6000×g) and filtered (0.2 μm) to remove cell debris. The remaining kinases were produced in HEK-293 cells and subsequently tagged with DNA for qPCR detection. […] The liganded beads were blocked with excess biotin and washing with blocking buffer (SeaBlock (Pierce), 1% BSA, 0.05% Tween 20, 1 mM DTT) to remove unbound ligand and to reduce non-specific phage binding. […] Test compounds were prepared as 40× stocks in 100% DMSO and directly diluted into the assay. All reactions were performed in polypropylene 384 well plates in a final volume of 40 μl. […] The kinase concentration in the eluates was measured by qPCR.

[4] = target: T3, CSNK1D (Homo sapiens, UniProt P48730); test: ScanEDGE kinase panel (DiscoverX); assay type: binding; settings: read-out: % of control activity at 71 nM
T3 construct: T7 phage fusion (most kinases) or DNA tag for qPCR (HEK-293-made kinases); purchased DiscoverX (Fremont, CA); host or cells: E. coli BL21-derived host (T7 phage) or HEK-293
Experimental: as §1

[5] = target: T4, PDGFRB (Homo sapiens, UniProt P09619); test: ScanEDGE kinase panel (DiscoverX); assay type: binding; settings: read-out: % of control activity at 71 nM
T4 construct: T7 phage fusion (most kinases) or DNA tag for qPCR (kinases made in HEK-293); purchased DiscoverX; host or cells: E. coli BL21-derived host (T7 phage) or HEK-293
Experimental: as §1

[6] = target: T5, RSK2 (Homo sapiens, UniProt P51812); test: ScanEDGE kinase panel (DiscoverX); assay type: binding; settings: read-out: % of control activity at 71 nM
T5 construct: T7 phage fusion (most kinases) or DNA tag after HEK-293 expression; purchased DiscoverX (Fremont, CA), ScanEDGE; host or cells: T7 phage in E. coli BL21-derived host, or HEK-293
Experimental: as §1

[7] = target: T6, PDPK1 (Homo sapiens, UniProt O15530); test: ScanEDGE kinase panel (DiscoverX); assay type: binding; settings: read-out: % of control activity at 71 nM
T6 construct: T7 phage fusion (most kinases) or DNA tag for qPCR (kinases made in HEK-293); purchased DiscoverX; host or cells: E. coli BL21-derived host (T7 phage) or HEK-293
Experimental: as §1

[8] = target: T7, PDGFRA (Homo sapiens, UniProt P16234); test: ScanEDGE kinase panel (DiscoverX); assay type: binding; settings: read-out: % of control activity at 71 nM
T7 construct: T7 phage fusion (most kinases) or DNA tag for qPCR (kinases made in HEK-293); purchased DiscoverX; host or cells: E. coli BL21-derived host (T7 phage) or HEK-293
Experimental: as §1

[9] = target: T8, EPHA2 (Homo sapiens, UniProt P29317); test: ScanEDGE kinase panel (DiscoverX); assay type: binding; settings: read-out: % of control activity at 71 nM
T8 construct: T7 phage fusion (most kinases) or DNA tag for qPCR (HEK-293-made kinases); purchased DiscoverX; host or cells: E. coli BL21-derived host (T7 phage) or HEK-293
Experimental: as §1

[10] = target: T9, PLK1 (Homo sapiens, UniProt P53350); test: ScanEDGE kinase panel (DiscoverX); assay type: binding; settings: read-out: % of control activity at 71 nM
T9 construct: T7 phage fusion (most kinases) or DNA tag for qPCR (kinases made in HEK-293); purchased DiscoverX; host or cells: E. coli BL21-derived host (T7 phage) or HEK-293
Experimental: as §1

[11] = target: T10, CDK11 (Homo sapiens, UniProt Q9BWU1); test: ScanEDGE kinase panel (DiscoverX); assay type: binding; settings: read-out: % of control activity at 71 nM
T10 construct: T7 phage fusion (most kinases) or DNA tag for qPCR (HEK-293-made kinases); purchased DiscoverX (Fremont, CA); host or cells: E. coli BL21-derived host (T7 phage) or HEK-293
Experimental: as §1

[12] = target: T11, VEGFR2 (Homo sapiens, UniProt P35968); test: ScanEDGE kinase panel (DiscoverX); assay type: binding; settings: read-out: % of control activity at 71 nM
T11 construct: T7 phage fusion (most kinases) or DNA tag after HEK-293 expression; purchased DiscoverX (Fremont, CA), ScanEDGE; host or cells: T7 phage in E. coli BL21-derived host, or HEK-293
Experimental: as §1

[13] = target: T12, MEK2 (Homo sapiens, UniProt P36507); test: ScanEDGE kinase panel (DiscoverX); assay type: binding; settings: read-out: % of control activity at 71 nM
T12 construct: T7 phage fusion (most kinases) or DNA tag for qPCR (kinases made in HEK-293); purchased DiscoverX; host or cells: E. coli BL21-derived host (T7 phage) or HEK-293
Experimental: as §1

[14] = target: T13, JAK2 (Homo sapiens, UniProt O60674); test: ScanEDGE kinase panel (DiscoverX); assay type: binding; settings: read-out: % of control activity at 71 nM
T13 construct: T7 phage fusion (most kinases) or DNA tag for qPCR (HEK-293-made kinases); purchased DiscoverX; host or cells: E. coli BL21-derived host (T7 phage) or HEK-293
Experimental: as §1

[15] = target: T14, SNARK (Homo sapiens, UniProt Q9H093); test: ScanEDGE kinase panel (DiscoverX); assay type: binding; settings: read-out: % of control activity at 71 nM
T14 construct: T7 phage fusion (most kinases) or DNA tag after HEK-293 expression; purchased DiscoverX (Fremont, CA), ScanEDGE; host or cells: T7 phage in E. coli BL21-derived host, or HEK-293
Experimental: as §1

T14 sequence (Q9H093 whole entry, the tested form may be a part): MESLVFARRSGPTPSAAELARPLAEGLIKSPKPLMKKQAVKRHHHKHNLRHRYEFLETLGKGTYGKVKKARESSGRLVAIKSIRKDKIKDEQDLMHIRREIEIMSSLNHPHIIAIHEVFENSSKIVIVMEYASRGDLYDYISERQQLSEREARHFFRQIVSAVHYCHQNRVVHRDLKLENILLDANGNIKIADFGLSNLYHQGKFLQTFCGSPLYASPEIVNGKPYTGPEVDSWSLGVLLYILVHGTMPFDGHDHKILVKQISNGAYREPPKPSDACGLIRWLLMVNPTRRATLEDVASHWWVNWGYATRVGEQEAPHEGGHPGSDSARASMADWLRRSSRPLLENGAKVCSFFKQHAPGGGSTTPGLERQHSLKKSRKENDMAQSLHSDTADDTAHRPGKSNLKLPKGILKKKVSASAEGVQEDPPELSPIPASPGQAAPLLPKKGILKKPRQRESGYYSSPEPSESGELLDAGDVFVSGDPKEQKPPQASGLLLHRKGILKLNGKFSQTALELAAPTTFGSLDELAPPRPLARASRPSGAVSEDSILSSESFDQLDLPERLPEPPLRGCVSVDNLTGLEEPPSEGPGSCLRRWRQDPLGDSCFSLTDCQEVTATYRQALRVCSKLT
T1 sequence (Q9H0K1 whole entry, the tested form may be a part): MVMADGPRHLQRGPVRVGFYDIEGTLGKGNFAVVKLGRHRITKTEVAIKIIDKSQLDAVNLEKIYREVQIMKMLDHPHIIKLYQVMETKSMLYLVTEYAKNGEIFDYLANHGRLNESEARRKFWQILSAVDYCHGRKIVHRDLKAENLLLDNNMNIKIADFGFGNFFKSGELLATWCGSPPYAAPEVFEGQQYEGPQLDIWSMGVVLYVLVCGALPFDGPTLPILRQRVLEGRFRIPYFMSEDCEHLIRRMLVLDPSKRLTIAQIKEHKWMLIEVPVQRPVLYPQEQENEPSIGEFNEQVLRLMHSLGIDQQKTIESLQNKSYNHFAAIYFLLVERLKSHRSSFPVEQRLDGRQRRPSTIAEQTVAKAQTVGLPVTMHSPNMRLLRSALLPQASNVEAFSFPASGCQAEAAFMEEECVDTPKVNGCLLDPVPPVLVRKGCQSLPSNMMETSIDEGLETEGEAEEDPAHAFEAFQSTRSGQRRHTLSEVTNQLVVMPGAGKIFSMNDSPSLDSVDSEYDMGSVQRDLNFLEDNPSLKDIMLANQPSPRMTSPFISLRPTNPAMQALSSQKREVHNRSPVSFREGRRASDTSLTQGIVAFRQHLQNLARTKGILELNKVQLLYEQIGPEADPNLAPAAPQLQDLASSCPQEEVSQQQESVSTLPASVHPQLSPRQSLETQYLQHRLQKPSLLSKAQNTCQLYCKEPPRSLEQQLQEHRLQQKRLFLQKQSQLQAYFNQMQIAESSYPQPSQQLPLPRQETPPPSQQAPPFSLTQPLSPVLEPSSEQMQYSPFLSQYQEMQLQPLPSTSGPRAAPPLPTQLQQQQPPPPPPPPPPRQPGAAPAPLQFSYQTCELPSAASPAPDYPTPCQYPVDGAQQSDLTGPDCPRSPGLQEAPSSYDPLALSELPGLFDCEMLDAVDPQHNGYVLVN
T12 sequence (P36507 whole entry, the tested form may be a part): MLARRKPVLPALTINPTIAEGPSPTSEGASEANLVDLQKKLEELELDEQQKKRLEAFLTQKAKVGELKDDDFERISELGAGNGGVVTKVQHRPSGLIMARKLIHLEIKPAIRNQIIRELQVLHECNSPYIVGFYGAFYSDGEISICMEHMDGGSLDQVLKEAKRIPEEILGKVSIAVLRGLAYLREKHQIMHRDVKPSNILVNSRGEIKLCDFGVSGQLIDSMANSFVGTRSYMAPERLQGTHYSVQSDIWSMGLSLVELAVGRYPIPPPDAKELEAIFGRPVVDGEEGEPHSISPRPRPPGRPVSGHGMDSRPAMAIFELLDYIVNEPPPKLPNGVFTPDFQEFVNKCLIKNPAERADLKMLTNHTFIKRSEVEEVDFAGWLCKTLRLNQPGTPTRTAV
T2 sequence (Q8NI60 163-647): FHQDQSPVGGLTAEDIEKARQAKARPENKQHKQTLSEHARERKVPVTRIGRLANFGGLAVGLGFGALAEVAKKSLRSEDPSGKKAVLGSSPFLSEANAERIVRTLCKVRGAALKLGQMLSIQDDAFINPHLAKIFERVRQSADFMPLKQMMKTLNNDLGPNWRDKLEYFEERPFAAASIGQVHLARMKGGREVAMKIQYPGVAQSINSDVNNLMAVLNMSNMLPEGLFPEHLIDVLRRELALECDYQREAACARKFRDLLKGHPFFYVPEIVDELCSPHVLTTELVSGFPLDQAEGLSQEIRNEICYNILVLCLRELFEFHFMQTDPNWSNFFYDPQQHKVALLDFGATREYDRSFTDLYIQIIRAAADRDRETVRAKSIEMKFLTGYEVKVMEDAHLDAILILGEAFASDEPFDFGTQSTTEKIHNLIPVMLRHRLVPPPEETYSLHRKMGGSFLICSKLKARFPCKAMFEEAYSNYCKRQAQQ
T7 sequence (P16234 24-1089): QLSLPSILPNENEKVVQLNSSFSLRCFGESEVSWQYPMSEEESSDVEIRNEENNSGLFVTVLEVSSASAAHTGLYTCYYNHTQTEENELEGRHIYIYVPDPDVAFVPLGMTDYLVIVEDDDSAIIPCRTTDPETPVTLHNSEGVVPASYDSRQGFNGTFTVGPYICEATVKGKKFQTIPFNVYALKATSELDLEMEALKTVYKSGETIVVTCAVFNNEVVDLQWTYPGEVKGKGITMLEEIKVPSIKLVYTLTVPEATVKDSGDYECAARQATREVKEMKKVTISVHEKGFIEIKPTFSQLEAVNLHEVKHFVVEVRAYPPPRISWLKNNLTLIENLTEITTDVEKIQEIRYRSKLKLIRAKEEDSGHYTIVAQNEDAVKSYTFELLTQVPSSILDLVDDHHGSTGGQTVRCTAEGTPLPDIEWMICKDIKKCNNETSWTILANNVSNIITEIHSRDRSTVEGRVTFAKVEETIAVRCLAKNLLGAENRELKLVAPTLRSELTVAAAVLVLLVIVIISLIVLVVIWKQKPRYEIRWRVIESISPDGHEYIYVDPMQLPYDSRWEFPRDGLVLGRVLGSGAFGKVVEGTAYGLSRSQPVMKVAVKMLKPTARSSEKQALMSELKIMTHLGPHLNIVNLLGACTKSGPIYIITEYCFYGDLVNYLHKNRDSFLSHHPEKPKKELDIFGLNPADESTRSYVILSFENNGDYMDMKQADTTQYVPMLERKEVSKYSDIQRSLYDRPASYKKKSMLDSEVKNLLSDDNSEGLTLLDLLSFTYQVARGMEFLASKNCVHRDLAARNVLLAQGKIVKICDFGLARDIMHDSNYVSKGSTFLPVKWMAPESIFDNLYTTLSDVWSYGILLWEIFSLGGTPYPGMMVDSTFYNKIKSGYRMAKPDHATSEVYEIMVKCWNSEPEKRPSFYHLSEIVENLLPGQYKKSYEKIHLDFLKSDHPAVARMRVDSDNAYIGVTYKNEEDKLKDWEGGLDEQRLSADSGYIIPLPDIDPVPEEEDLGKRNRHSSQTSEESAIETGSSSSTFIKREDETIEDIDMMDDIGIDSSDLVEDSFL
T10 sequence (Q9BWU1 whole entry, the tested form may be a part): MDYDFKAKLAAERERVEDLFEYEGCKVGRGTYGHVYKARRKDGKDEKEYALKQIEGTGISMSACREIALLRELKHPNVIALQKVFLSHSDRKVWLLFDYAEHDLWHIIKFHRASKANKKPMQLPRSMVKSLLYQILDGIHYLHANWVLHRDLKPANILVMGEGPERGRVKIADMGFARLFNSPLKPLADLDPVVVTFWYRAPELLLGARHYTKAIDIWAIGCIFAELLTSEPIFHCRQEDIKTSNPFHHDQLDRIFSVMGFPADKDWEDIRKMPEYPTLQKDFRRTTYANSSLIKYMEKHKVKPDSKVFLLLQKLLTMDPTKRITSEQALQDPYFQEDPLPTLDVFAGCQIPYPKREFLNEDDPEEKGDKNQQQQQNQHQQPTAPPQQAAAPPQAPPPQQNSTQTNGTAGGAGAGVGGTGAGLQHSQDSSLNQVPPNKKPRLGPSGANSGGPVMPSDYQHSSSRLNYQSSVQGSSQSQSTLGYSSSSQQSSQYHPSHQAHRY
T13 sequence (O60674 840-1132 limits assumed): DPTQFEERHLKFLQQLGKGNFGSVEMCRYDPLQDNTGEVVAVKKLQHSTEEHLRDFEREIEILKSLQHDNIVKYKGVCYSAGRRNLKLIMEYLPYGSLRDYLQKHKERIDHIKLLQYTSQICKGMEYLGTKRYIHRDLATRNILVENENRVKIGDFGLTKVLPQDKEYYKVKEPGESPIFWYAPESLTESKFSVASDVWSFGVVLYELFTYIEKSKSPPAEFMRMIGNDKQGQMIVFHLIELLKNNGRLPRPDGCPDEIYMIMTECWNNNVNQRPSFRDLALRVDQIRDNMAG
T9 sequence (P53350 whole entry, the tested form may be a part): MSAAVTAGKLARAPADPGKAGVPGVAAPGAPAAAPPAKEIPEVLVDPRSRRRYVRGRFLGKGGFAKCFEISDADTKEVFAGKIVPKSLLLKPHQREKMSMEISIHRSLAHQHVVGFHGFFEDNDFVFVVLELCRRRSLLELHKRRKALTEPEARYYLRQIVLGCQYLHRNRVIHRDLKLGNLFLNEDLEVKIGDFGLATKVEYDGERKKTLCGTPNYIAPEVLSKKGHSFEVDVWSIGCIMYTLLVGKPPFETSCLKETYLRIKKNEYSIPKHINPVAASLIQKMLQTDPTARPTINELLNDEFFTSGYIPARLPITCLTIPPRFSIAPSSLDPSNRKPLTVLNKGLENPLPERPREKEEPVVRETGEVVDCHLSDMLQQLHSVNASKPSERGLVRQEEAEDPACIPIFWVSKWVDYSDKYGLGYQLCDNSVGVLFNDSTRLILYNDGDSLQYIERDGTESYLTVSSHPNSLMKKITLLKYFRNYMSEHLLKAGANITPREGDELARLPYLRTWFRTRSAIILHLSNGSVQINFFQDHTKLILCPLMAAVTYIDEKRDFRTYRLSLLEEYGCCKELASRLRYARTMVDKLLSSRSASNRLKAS

pKd [1]: 8.15
remaining binding at 0.071 µM [3]: 93%
remaining binding at 0.071 µM [4]: 98%
remaining binding at 0.071 µM [5]: 0.35%
remaining binding at 0.071 µM [6]: 51%
remaining binding at 0.071 µM [7]: 55%
remaining binding at 0.071 µM [8]: 11%
remaining binding at 0.071 µM [9]: 7.1%
remaining binding at 0.071 µM [10]: 100%
remaining binding at 0.071 µM [11]: 88%
remaining binding at 0.071 µM [12]: 26%
remaining binding at 0.071 µM [13]: 12%
remaining binding at 0.071 µM [14]: 13%
remaining binding at 0.071 µM [15]: 6%
Structure (SMILES): COc1ccc(N2C(=O)N(c3c(C)cccc3C)Cc3cnc(Nc4ccc(C5CCN(C)CC5)c(OC)c4)nc32)c(OC)c1 [YKL-05-093]
half-life / stability in murine hepatic microsomes [2]: improved half-life; also recorded: somewhat improved stability
